Test results: paper PMC4894652 (Neuron, 2016)

Molecular target: T1, DmSLC22A (CG7442) (Drosophila melanogaster, UniProt Q7JRD5)
T1 sequence (Q7JRD5 1-568): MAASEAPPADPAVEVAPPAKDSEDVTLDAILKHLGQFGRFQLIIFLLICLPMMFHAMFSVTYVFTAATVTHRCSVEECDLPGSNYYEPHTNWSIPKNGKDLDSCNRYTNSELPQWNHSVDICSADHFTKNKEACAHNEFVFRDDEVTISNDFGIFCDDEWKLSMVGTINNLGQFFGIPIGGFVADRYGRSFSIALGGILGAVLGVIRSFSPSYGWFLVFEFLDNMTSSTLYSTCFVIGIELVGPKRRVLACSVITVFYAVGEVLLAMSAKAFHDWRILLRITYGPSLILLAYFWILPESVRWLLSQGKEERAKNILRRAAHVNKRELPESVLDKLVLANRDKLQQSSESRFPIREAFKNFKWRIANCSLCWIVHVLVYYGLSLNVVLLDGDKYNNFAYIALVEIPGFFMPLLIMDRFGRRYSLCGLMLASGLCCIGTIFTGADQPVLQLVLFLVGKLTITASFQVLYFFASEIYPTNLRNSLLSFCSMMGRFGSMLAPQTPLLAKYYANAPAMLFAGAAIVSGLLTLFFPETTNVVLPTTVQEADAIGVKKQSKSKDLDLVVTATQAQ
Type: cell-based
Conditions: labelled compound; doxycycline-induced vs un-induced cells

Structure (SMILES)	apparent Km
C[n+]1ccc(-c2ccccc2)cc1 [MPP]	Table S2 lists the apparent Km and Vmax values for each substrate
CC[N+](CC)(CC)CC [TEA]	Table S2 lists the apparent Km and Vmax values for each substrate
CC(=O)OCC[N+](C)(C)C [acetylcholine]	choline and acetylcholine are transported with low μM Km values
C[N+](C)(C)CC(=O)[O-] [betaine]	Table S2 lists the apparent Km and Vmax values for each substrate
C[N+](C)(C)CCO [choline]	choline and acetylcholine are transported with low μM Km values
NCCc1c[nH]cn1 [histamine]	Table S2 lists the apparent Km and Vmax values for each substrate
NCCc1c[nH]c2ccc(O)cc12 [serotonin]	Table S2 lists the apparent Km and Vmax values for each substrate
